Results on 2 molecules are retold here after patent US20240228493A1, “LRRK2 INHIBITORS AND USES THEREOF” (NEURON23, ICN., priority 2022, published 2024).

For orientation: pIC50 means the IC50 on a negative log10 scale, so that one unit is a factor of ten. High values mean a small IC50, low ones a large IC50.

Data set [1] concerns the target T1, wt human LRRK2, catalytic site (Homo sapiens, UniProt Q5S007).
T1 construct: wt human LRRK2, catalytic site, catalytic site (ThermoFisher/USA); purchased ThermoFisher
Briefly: TR-FRET LanthaScreen Tb Kinase Activity Assay, LRRK2 inhibition. The class given is biochemical. To be noted: 2 nM wt human LRRK2, 400 nM peptide, 38 μM ATP. A digest of the protocol:
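Fluorescein-ERM (LRRKtide) peptide (400 nM) phosphorylated by 2 nM wt human LRRK2 catalytic site with 38 μM ATP in 1× Kinase Buffer A, 120 min at room temperature after 15 min compound–kinase preincubation. EDTA plus Tb-anti-pLRRKtide antibody added, read after 60 min; inhibition from TR-FRET emission ratios.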
A general note: TR-FRET usually uses a lanthanide donor and a delayed reading to cut background.

Data set [2] deals with Caco-2 cells. Briefly: Caco-2 bidirectional permeability. The class given is in vitro ADME. To be noted: for Caco-2 ER: Efflux Ratio=Papp(BA)/Papp(AB); for Caco-2 A2B (10^−6 cm/s): apical to basolateral; for Caco-2 A2B (10^−6 cm/s) / Caco-2 B2A (10^−6 cm/s): 2 hours, pH 7.4; for Caco-2 B2A (10^−6 cm/s): basolateral to apical. A digest of the protocol:
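Caco-2 monolayers were grown 21–28 days on PET inserts and run in duplicate in HBSS with 10 mM HEPES, pH 7.4. Test compound was dosed bidirectionally at […] for 2 h at 37 °C; quantification was by LC-MS/MS. Papp and efflux ratio (B-A/A-B) were calculated, with lucifer yellow monolayer integrity checks.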
(Passage across Caco-2 layers is used to estimate intestinal permeability.)

Data set [3] relates to human hepatocyte. Briefly: Human hepatocyte stability, predicted hepatic clearance (h-Hept CL predict). The class given is in vitro ADME. The note with it: human hepatocytes, 0.5×10^6 cells/mL, 1 μM, values without asterisk. Put shortly:
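Cryopreserved human hepatocytes, 0.5×10^6 viable cells/mL in William's E/GlutaMAX, incubated with compound at 1 μM final, duplicates. Sampling at 0-120 min, LC/MS/MS parent loss gives t1/2, converted to CLint and scaled to predicted hepatic clearance (well-stirred model, fub assumed 1).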

Structures are written as SMILES. pIC50: −log10 of the molar value.

T1 sequence (Q5S007 1879-2138 limits assumed): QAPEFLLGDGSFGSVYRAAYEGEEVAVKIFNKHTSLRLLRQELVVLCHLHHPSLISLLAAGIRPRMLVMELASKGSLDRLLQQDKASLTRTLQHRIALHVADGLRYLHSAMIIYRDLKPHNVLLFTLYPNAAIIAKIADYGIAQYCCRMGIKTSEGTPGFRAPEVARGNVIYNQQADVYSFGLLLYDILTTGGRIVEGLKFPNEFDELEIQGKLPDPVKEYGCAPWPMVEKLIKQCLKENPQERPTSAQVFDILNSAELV

Regarding `Cc1n[nH]c2c1N=C(c1c(F)cccc1F)Nc1c-2cc(N2CCC(C)(O)CC2)nc1C` [Example 41, 1-(5-(2,6-difluorophenyl)-3,7-dimethyl-1,6-dihydropyrazolo[4,3-d]pyrido[4,3-f][1,3]diazepin-9-yl)-4-methylpiperidin-4-ol], the pIC50 in data set [1] was 7.00 to 9.00. Also, in data set [2], the “Caco-2 ER” value is on record as “L (L (Likely)”: ER≥2.5)”, the “Caco-2 A2B (10^−6 cm/s)” value is recorded as “M (M (Moderate permeability)”: 1≤A2B (B2A)≤5)” and the “Caco-2 B2A (10^−6 cm/s)” value is listed as “H (H (High permeability)”: A2B (B2A)>5)”. Besides, the “hHep Cl (mL/min/kg)” value in data set [3] was “I (I (Intermediate Cl)”: 6.3≤Hep Cl (mL/min/kg)≤14.7)”.

The molecule `Cn1cc(-c2cc3c(cn2)NC(c2c(F)cccc2F)=Nc2c(Cl)n[nH]c2-3)cn1` [Example 54, 3-chloro-5-(2,6-difluorophenyl)-9-(1-methyl-1H-pyrazol-4-yl)-1,6-dihydropyrazolo[4,3-d]pyrido[4,3-f][1,3]diazepine] had a pIC50 in data set [1] of over 9.00. Moreover, in data set [2], the “Caco-2 ER” value is “L (L (Likely)”: ER≥2.5)”, the “Caco-2 A2B (10^−6 cm/s)” value is listed as “M (M (Moderate permeability)”: 1≤A2B (B2A)≤5)” and the “Caco-2 B2A (10^−6 cm/s)” value is “H (H (High permeability)”: A2B (B2A)>5)”. For the same molecule, the “hHep Cl (mL/min/kg)” value in data set [3] is reported as “I (I (Intermediate Cl)”: 6.3≤Hep Cl (mL/min/kg)≤14.7)”.
